Each structure is given as a SMILES string. Calls of active or inactive are those of the source. How the calls were made is not given here.

For orientation: Kd means a measure of binding affinity in units of concentration.

In this experiment the target is Influenza A virus M2 proton channel (A/TW/4845/1999 H1N1). In words: M2 proton channel binding, NMR based, influenza A virus H1N1 strain (AID 1549). The note with it: NMR binding screen, M2 protein.
`COC(=O)c1cc(C)on1`: the Kd is > 4 mM (inactive).

In the case of `O=C1CCCCCN1CO`, the Kd was > 4 mM (inactive).

As for `C=CC1=C(C)/C(=C/c2[nH]c(Cc3[nH]c(/C=C4\NC(=O)C(C)=C4C=C)c(C)c3CCC(=O)O)c(CCC(=O)O)c2C)NC1=O`, the Kd is > 4 mM (inactive).

Take `CC(C)NC1CS(=O)(=O)CC1O` (stereo not given): the Kd is > 4 mM (inactive).

For the compound `CC(C)CCn1cnc2c1c(=O)n(C)c(=O)n2C`, the Kd is > 4 mM (inactive).

With `COc1cnn(-c2ccccc2)c(=O)c1N(C)C`, the Kd is > 4 mM (inactive).

On to `CC1(C)C(=O)CC[C@@]2(C)C1C[C@@H](O)[C@@]1(C)C3=CC(=O)O[C@@H](c4ccoc4)[C@]3(C)CCC21` (stereo not given in full), for which the Kd was > 4 mM (inactive).

For `Cc1ccccc1-n1c(N)cc(=O)[nH]c1=S`, the Kd is > 4 mM (inactive).

With `O=CN1CCN(C(=O)c2ccccc2F)CC1`, the Kd is > 4 mM (inactive).

Consider `Cc1csc(SCC(=O)N2CCCC2)n1`, for which the Kd was > 4 mM (inactive).

As to `c1ccc(-c2n[nH]c(-c3ccccn3)n2)nc1`, the Kd was > 4 mM (inactive).

As for `CNC(=O)Oc1ccc2c(c1)[C@]1(C)CCN(C)[C@@H]1N2C`, the Kd was > 4 mM (inactive).

With `CSc1ccccc1NC(=O)c1ccoc1C`, the Kd was > 4 mM (inactive).

For the compound `CC(C)CCCC(C)C1CCC2C3=CC[C@H]4C[C@@H](O)CC[C@]4(C)C3CC[C@@]21C` (stereo not given in full), the Kd was > 4 mM (inactive).

Take `CON(C)C(=O)Nc1ccc(Cl)cc1`: the Kd is > 4 mM (inactive).

On to `O=C(NCc1cccs1)c1ccncc1`, for which the Kd is > 4 mM (inactive).

With `Nc1c(Nc2ccccc2)c2ccccc2oc1=O`, the Kd is > 4 mM (inactive).

Regarding `Nc1cc(=O)[nH]c(=O)n1-c1ccccc1`, the Kd is > 4 mM (inactive).

In the case of `CCc1ccc(C(=O)N2CCCC2)s1`, the Kd is > 4 mM (inactive).

As to `O=C(Nc1ccon1)c1cccc(Cl)c1`, the Kd is > 4 mM (inactive).

As for `COC(=O)Nc1nc2c(s1)CCCC2`, the Kd was > 4 mM (inactive).

Take `Nc1ccc(C(=O)NCC2CCCO2)cc1` (stereo not given): the Kd is > 4 mM (inactive).

As to `Cc1noc(C)c1C(=O)Nc1ccccc1-c1ccccc1`, the Kd is > 4 mM (inactive).

Take `OCC1=Cc2ccccc2OC1`: the Kd was > 4 mM (inactive).

Turning to `NC(=O)c1cn(-c2ccccc2)nc1-c1cccnc1`, the Kd was > 4 mM (inactive).

On to `CC1(C)C2CC(=O)[C@]3(C)C(CC[C@@]4(C)[C@H](c5ccoc5)OC(=O)[C@H]5O[C@]543)[C@@]2(C)C=C[C@@H]1O` (stereo not given in full), for which the Kd is > 4 mM (inactive).

Consider `CC(C)=NNC(=O)C(=O)Nc1ccc(F)cc1`, for which the Kd is > 4 mM (inactive).

For the compound `O=C(CS(=O)(=O)c1ccccc1)Nc1nccs1`, the Kd was > 4 mM (inactive).

Turning to `CC(C)NC(=S)NCc1cnn(C)c1`, the Kd was > 4 mM (inactive).

Consider `S=C(NC1=NCCS1)Nc1ccccc1`, for which the Kd is > 4 mM (inactive).

As to `OCc1cccc2c1OCCO2`, the Kd is > 4 mM (inactive).

As to `COc1cccc(NC(=O)c2ncn[nH]2)c1`, the Kd is > 4 mM (inactive).

In the case of `Nc1nnc(-c2ccncc2)s1`, the Kd is > 4 mM (inactive).

In the case of `O=c1c(Cl)c(NCCO)ncn1-c1ccccc1`, the Kd was > 4 mM (inactive).

Take `COc1cccc2c1CCC1=CC(=O)CC[C@@]12C`: the Kd was > 4 mM (inactive).

As for `Cc1cc(NC(=O)NCCCSc2nncn2C)no1`, the Kd was > 4 mM (inactive).

As to `Cc1cc(S(=O)(=O)N2CCOCC2)ccc1F`, the Kd was > 4 mM (inactive).

Take `NCc1ccc(-c2cccs2)cc1`: the Kd was > 4 mM (inactive).

As to `Cn1c(CNc2ccccc2)cc(=O)n(C)c1=O`, the Kd was > 4 mM (inactive).

As for `COc1ccc2c(c1)OCC(Cc1ccc(OC)c(OC)c1)C2=O` (stereo not given), the Kd was > 4 mM (inactive).

As to `Cn1c(O)c(C=NCC2CCNCC2)c(=O)n(C)c1=O`, the Kd is > 4 mM (inactive).

`N#CCCn1c(=O)oc2ccccc21`: the Kd was > 4 mM (inactive).

As for `O=c1cccc2n1CC1CC2CN2CCCC[C@@H]12` (stereo not given in full), the Kd was > 4 mM (inactive).

As for `CC1CCC(N2CCN(c3ncccn3)CC2)CC1` (stereo not given), the Kd was > 4 mM (inactive).

On to `CSc1nnc(CN2CCSCC2)n1C`, for which the Kd was > 4 mM (inactive).

As for `c1ccc2[nH]c(CCn3cncn3)nc2c1`, the Kd was > 4 mM (inactive).

As for `Nc1ccc(Cc2ccc(N)cc2)cc1`, the Kd was > 4 mM (inactive).

With `OCc1ccc2c(c1)OCCO2`, the Kd was > 4 mM (inactive).

With `O=C(O)CCCNC(=O)c1ccccc1C(=O)O`, the Kd was > 4 mM (inactive).

Regarding `OCc1sccc1-n1cccc1`, the Kd is > 4 mM (inactive).

On to `O=C1CNC(=O)N1Cc1ccc(Br)cc1`, for which the Kd is > 4 mM (inactive).

On to `Cc1cc(NC(=O)CSc2nncn2C)no1`, for which the Kd is > 4 mM (inactive).

In the case of `COc1ccc2nc(N)sc2c1`, the Kd was > 4 mM (inactive).

Turning to `Cc1ccn(S(=O)(=O)c2ccc(F)cc2)n1`, the Kd was > 4 mM (inactive).

Consider `Cc1occc1C(=O)Nc1cc(C(C)(C)C)on1`, for which the Kd is > 4 mM (inactive).

On to `Cn1c(SCC(N)=O)nc2c1c(=O)[nH]c(=O)n2C`, for which the Kd is > 4 mM (inactive).

As to `CCn1nccc1C(=O)Nc1ccc(Cl)cc1Cl`, the Kd was > 4 mM (inactive).

On to `O=C(c1ccc2c(c1)OCO2)N1CCC2(CC1)OCCO2`, for which the Kd is > 4 mM (inactive).

For the compound `Nc1ncnc(NCCOCCO)c1[N+](=O)[O-]`, the Kd was > 4 mM (inactive).

On to `CC(=O)c1cc2c(cc1O)OC(C)(C)C=C2`, for which the Kd is > 4 mM (inactive).

On to `NC(=NCCC[C@H](N)C(=O)O)NC(CCC(=O)O)C(=O)O` (stereo not given in full), for which the Kd was > 4 mM (inactive).

For the compound `CCC(=O)Nc1ccc(-c2nn3c(C)nnc3s2)cc1`, the Kd is > 4 mM (inactive).

Consider `c1n[nH]cc1-c1cn[nH]c1`, for which the Kd is > 4 mM (inactive).

As for `Cc1cc(=O)n(CCc2ccccc2)c(O)c1C#N`, the Kd is > 4 mM (inactive).

In the case of `O=C(CCc1ccc(O)cc1)c1c(O)cc(O)cc1O[C@@H]1O[C@H](CO)[C@@H](O)[C@H](O)[C@H]1O`, the Kd was > 4 mM (inactive).

On to `Cc1cc(C(=O)Nc2ccon2)cs1`, for which the Kd is > 4 mM (inactive).

`NC(=O)C1CCN(C(=O)c2ccccc2F)CC1`: the Kd was > 4 mM (inactive).

Regarding `O=c1[nH]c(O)c(C=NCc2cccs2)c(=O)[nH]1`, the Kd is > 4 mM (inactive).

As for `O=C(O[C@@H]1Cc2c(O)cc(O)cc2O[C@@H]1c1cc(=O)c(O)c2c(O)c(O)cc([C@H]3Oc4cc(O)cc(O)c4C[C@H]3O)c2c1)c1cc(O)c(O)c(O)c1`, the Kd is > 4 mM (inactive).

Consider `COc1ccc(-c2oc3cc(O[C@H]4O[C@H](CO)[C@@H](O)[C@H](O)[C@H]4O)c(OC)c(O)c3c(=O)c2OC)cc1O`, for which the Kd is > 4 mM (inactive).

Regarding `COc1cc2nc(-c3cccs3)oc(=O)c2cc1OC`, the Kd is > 4 mM (inactive).

`Cc1cc2cc(N)ccc2[nH]1`: the Kd is > 4 mM (inactive).

Regarding `COc1cc(/C=C2/NC(=S)NC2=O)cc(Cl)c1O`, the Kd was > 4 mM (inactive).

With `Cc1cc(C)c(C#N)c(N2CCCC2)n1`, the Kd is > 4 mM (inactive).

In the case of `C=CCSc1[nH]c(=O)cc(C)c1C(N)=O`, the Kd was > 4 mM (inactive).

With `CC(=O)Nc1c(Cl)cnn(-c2ccccc2)c1=O`, the Kd is > 4 mM (inactive).

As for `COc1cc2cc[n+]3cc4c(OC)c(OC)ccc4cc3c2cc1OC`, the Kd was > 4 mM (inactive).

Take `COc1cc(C(=S)N2CCC(C(N)=O)CC2)ccc1O`: the Kd is > 4 mM (inactive).

Regarding `Nc1ccc(OCc2ccccc2)cc1`, the Kd is > 4 mM (inactive).

For the compound `c1cc2n(c1)CCNC2c1ccncc1` (stereo not given), the Kd is > 4 mM (inactive).

For the compound `O=C(c1cc(-c2ccccc2)on1)N1CCCC1`, the Kd was > 4 mM (inactive).

Turning to `CCC(C)C(=O)O[C@@H]1C[C@@]2(C)[C@H](c3ccoc3)OC(=O)CC23OC2(C)OC34[C@H](OC(=O)C(C)C)[C@@]3(O)[C@@H](OC(=O)C5(C)OC5C)[C@@]5(C)C[C@]3(O)[C@@](C)([C@H]5CC(=O)OC)C14O2` (stereo not given in full), the Kd was > 4 mM (inactive).

Turning to `COC(=O)C1CCN(c2ccc(Cl)nn2)CC1`, the Kd is > 4 mM (inactive).

On to `CCC(=O)Nc1ccccc1NC(C)=O`, for which the Kd was > 4 mM (inactive).

As for `CC(CCC(=O)O)[C@H]1CCC2C3CC[C@@H]4C[C@H](O)CC[C@]4(C)C3C[C@H](O)[C@@]21C` (stereo not given in full), the Kd is > 4 mM (inactive).

Turning to `Cn1c(=O)c2c(n(C)c1=O)=NC1(CCCCC1)N=2`, the Kd is > 4 mM (inactive).

As for `COc1cc([C@@H]2c3cc4c(cc3[C@H](O)[C@H]3COC(=O)[C@@H]23)OCO4)cc(OC)c1OC`, the Kd was > 4 mM (inactive).

`O=C(O)C1CC(=O)N(CCc2ccc(Cl)cc2)C1` (stereo not given): the Kd was > 4 mM (inactive).

Turning to `COc1ccc(/C=C2\SC(N)=NC2=O)cc1`, the Kd is > 4 mM (inactive).

As to `Cc1noc(-c2ccccc2)c1CO`, the Kd is > 4 mM (inactive).

Take `CC1=C(/C=C/C(C)=C/C=C/C(C)=C/C=C/C=C(C)/C=C/C=C(C)/C=C/C2=C(C)CCCC2(C)C)C(C)(C)CCC1`: the Kd is > 4 mM (inactive).

In the case of `O=C(NC1=NCCS1)c1cccc(F)c1`, the Kd was > 4 mM (inactive).

In the case of `COC(=O)CCSCC(=O)Nc1nccs1`, the Kd was > 4 mM (inactive).

In the case of `Cc1nc(-c2ccc(C(=O)O)s2)cs1`, the Kd is > 4 mM (inactive).

In the case of `Cn1nnc2cc(C(=O)NC3=NCCS3)ccc21`, the Kd is > 4 mM (inactive).

Regarding `O=C(Nc1nc2c(s1)CCCC2)c1cccnc1`, the Kd was > 4 mM (inactive).

As for `CC(C)C(C)/C=C/C(C)C1CCC2C3=CC=C4CC(O)CCC4(C)C3CCC21C` (stereo not given), the Kd was > 4 mM (inactive).

With `CN=C(C)c1c(O)n(C)c(=S)n(C)c1=O`, the Kd was > 4 mM (inactive).

Turning to `O=C(CSc1ncnc2ccccc12)NCCCO`, the Kd was > 4 mM (inactive).

`Nc1cccc(F)c1-c1ncon1`: the Kd is > 4 mM (inactive).

Values taken from PubChem BioAssay AID1549 (Sanford-Burnham Center for Chemical Genomics, 2009).
